The text below walks through data of patent publication US20190076507A1, “Artificial Red Blood Cell Having Ability to Inhibit Conversion of Hemoglobin into Methemoglobin” (Public University Corporation Nara Medical University, priority 2016, published 2019).

Holding throughout (assay type): biochemical
The nature of assay [1]: Catalase (pseudo CAT) activity from change of absorbance at 230 nm of H2O2. The settings on record: for catalase / CAT pseudo activity (in words): Examples 1 and 7; for pseudo CAT: Table 1, NADH without Hb, calculated relative to Hb conc. of 1.5 mM (10 g/dL). The method, then: (§1) The activity of NADH-cytochrome b5 reductase in the above-mentioned purified and concentrated HbCO solution was determined as NADH-ferricyanide reductase activity according to Beutler, E. above. Diluted Hb samples comprising the enzyme to be measured is mixed with a buffer comprising NADH. The mixed solutions were left standing for 10 minutes at 30° C., and then potassium ferricyanide (K3Fe (CN)6), the enzyme substrate, was added to start the enzyme reaction. The decrease of difference of absorbance at 340 nm, a characteristic absorption of NADH, per minute was measured to determine activity unit E (IU/gHb). […] It was reasoned that the heat-labile NADH-cytochrome b5 reductase was eliminated as denatured and insoluble, or denatured and inactivated, due to the introduction of heat treatment during the purifying step. In addition, activities of NADPH metHb reductase and NADPH diaphorase, which correspond to NADPH-flavin reductase are also determined by the above-mentioned methods according to Beutler, E. Diluted blood samples comprising the enzyme to be measured is mixed with a buffer comprising NADPH. The mixed solutions were left standing for 10 minutes at 37° C., and then methylene bleu (MeBl), the enzyme substrate, was added to start the enzyme reaction. The decrease of difference of absorbance at 340 nm, a characteristic absorption of NADPH, per minute was measured to determine activity unit E (IU/gHb). […] Catalase activity of the purified HbCO solution was determined from the change of the absorbance at 230 nm, the absorption wavelength of H2O2, according to Beutler, E. (RED CELL METABOLISM: A MANUAL OF BIOCHEMICAL METHOD, Grune &Stratton, Inc. pp. 105-106 (1987)). […] Pyrogallol was used for measurement of SOD activity (Marklund, S. and Marklund, G., Eur. J. Biochem. 47, 469-474 (1974); Roth, E. F. Jr. and Gilbert, H. S., Anal. Biochem. 137, 50-53(1984)). Pyrogallol is oxidized with oxygen to generate superoxide, and further reacted to generate a yellow dye with absorbance at 420 nm. SOD inhibits this reaction. SOD enzyme activity was determined based on this inhibitory activity. Analyzed specimens were solutions of purified HbO2, HbCO, metHb and solutions thereof further comprising NADH or L-tyrosine In addition, enzyme activity of crude SFHb solution was also determined as a control. […] When NADH and HbO2 were coexisted, however, high CAT and SOD pseudo activities (Table 1). […] The pseudo activity was detected when NADH alone was present, however, the activity was about a tenth ( 1/10) compared with when HbO2 was coexisted. […] There were results showing that this pseudo activity increased as more NADH was added.

A short description of assay [2]: SOD (pseudo SOD) activity, pyrogallol method. The settings on record: for SOD / SOD pseudo activity (in words): Examples 1 and 7; for pseudo SOD: Table 1, pyrogallol, absorbance at 420 nm, Hb form and antioxidant conc. per entry. The method, then: as §1
A further assay addresses T1, HbO2 (Homo sapiens, UniProt P68871+P69905).
T1 construct: The Hb released by hemolysis was filtered and collected, with the red blood cell membrane components (stroma) separated and removed; from tissue; host or cells: human red blood cells (expired donated blood); heat-treated, nanofiltered, purified and concentrated HbCO, photoconverted to HbO2
Nature of the assay: Screening of suppressing effect of compounds against autoxidation of HbO2. The settings on record: for metHb conversion (%): HbO2 10 g/dL, antioxidant 1 g/dL, 37° C., 24 hours. The method, then:
NADH was purchased from Oriental Yeast Co. Ltd., and all the rest were purchased from Sigma-Aldrich (St. Louis, Mo., USA). HbCO solution was transferred to an eggplant flask and irradiated with visible light (halogen lamp; LPL Videeoligtvl-302, LPLCO. Ltd., Tokyo, Japan) under oxygen gas flow to convert to HbO2. […] The conversion ratios to metHb were determined from the visible absorption spectrum. The measurement of spectrum between 300 nm to 500 nm was conducted using a spectrophotometer (V-660, Japan Spectroscopic Company (JASCO)) mounted with a device to control the light scattering to the minimum (an integrating sphere). The atmosphere inside of a Thunberg cuvette was replaced with nitrogen gas and the conversion ratios to metHb were determined from the ratios of absorbance at 405 nm (λmax of metHb) and 430 nm (λmax of deoxyHb).

T1 sequence (P69905 2-142 limits assumed): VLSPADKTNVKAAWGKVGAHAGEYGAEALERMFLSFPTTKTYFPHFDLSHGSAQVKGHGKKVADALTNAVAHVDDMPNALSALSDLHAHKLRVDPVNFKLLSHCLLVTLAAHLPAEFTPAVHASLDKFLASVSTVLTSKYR
T1 sequence (P68871 2-147 limits assumed): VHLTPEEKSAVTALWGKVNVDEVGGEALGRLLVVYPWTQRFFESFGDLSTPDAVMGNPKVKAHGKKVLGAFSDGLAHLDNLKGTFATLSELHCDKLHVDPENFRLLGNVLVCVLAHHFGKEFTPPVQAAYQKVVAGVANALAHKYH

Regarding “13: oxyhemoglobin 1.5 mM prepared from the purified Hb solution, no antioxidant [Entry 13]”, the “catalase / CAT pseudo activity (in words)” value in assay [1] is given as “no enzyme activity was found”. In addition, in assay [2], the “SOD / SOD pseudo activity (in words)” value is reported as “no enzyme activity was found”. As to “14: methemoglobin 1.5 mM prepared from the purified Hb solution, no antioxidant [Entry 14]”, the “catalase / CAT pseudo activity (in words)” value in assay [1] is recorded as “no enzyme activity was found”. Also, the “SOD / SOD pseudo activity (in words)” value in assay [2] is “no enzyme activity was found”.

As to “15: carbonyl Hb 1.5 mM prepared from the purified Hb solution, no antioxidant [Entry 15]”, the “catalase / CAT pseudo activity (in words)” value in assay [1] was “no enzyme activity was found”. Also, the “SOD / SOD pseudo activity (in words)” value in assay [2] is reported as “no enzyme activity was found”. Consider `Nc1ncnc2c1ncn2[C@@H]1O[C@H](COP(=O)(O)OP(=O)(O)OP(=O)(O)O)[C@@H](O)[C@H]1O` [ATP], for which the “metHb conversion (%)” value at HbO2 is 44%.

With `O=C[C@H](O)[C@@H](O)[C@H](O)[C@H](O)CO` [D-glucose], on HbO2, the “metHb conversion (%)” value stood at 36%. For the compound `NC(=O)C1=CN([C@@H]2O[C@H](COP(=O)(O)OP(=O)(O)OC[C@H]3O[C@@H](n4cnc5c(N)ncnc54)[C@H](O)[C@@H]3O)[C@@H](O)[C@H]2O)C=CC1` [Entry 10, NADH], in assay [1], the “pseudo CAT” value was 3.6 × 10^4 *) IU/g Hb. In addition, in assay [2], the “pseudo SOD” value is given as 1.1 × 10^2 U/g Hb.

`NC(=O)C1=CN([C@@H]2O[C@H](COP(=O)(O)OP(=O)(O)OC[C@H]3O[C@@H](n4cnc5c(N)ncnc54)[C@H](O)[C@@H]3O)[C@@H](O)[C@H]2O)C=CC1` [Entry 11, NADH]: in assay [1], the “pseudo CAT” value is on record as 4.1 × 10^4 *) IU/g Hb. Besides, the “pseudo SOD” value in assay [2] is 1.3 × 10^2 U/g Hb. The like results for `NC(=O)C1=CN([C@@H]2O[C@H](COP(=O)(O)OP(=O)(O)OC[C@H]3O[C@@H](n4cnc5c(N)ncnc54)[C@H](O)[C@@H]3O)[C@@H](O)[C@H]2O)C=CC1` [Entry 12, NADH] were, in that order, 19.2 × 10^4 *) IU/g Hb and 0.6 × 10^2 U/g Hb.

With `N=C(N)NCCC[C@H](N)C(=O)O` [L-arginine], the “metHb conversion (%)” value on HbO2 turned out to be 38%. Take `NC(=O)C[C@H](N)C(=O)O` [L-asparagine]: at HbO2, the “metHb conversion (%)” value was 40%. Still for that read-out and setting: with `N[C@@H](CS)C(=O)O` [L-cysteine] the figure was 34%; with `NC(=O)CC[C@H](N)C(=O)O` [L-glutamine], 43%; with `N[C@@H](Cc1c[nH]cn1)C(=O)O` [L-histidine], 32%. As for `NCCCC[C@H](N)C(=O)O` [L-lysine], the “metHb conversion (%)” value on HbO2 worked out at 34%. As to `CSCC[C@H](N)C(=O)O` [L-methionine], the “metHb conversion (%)” value at HbO2 is listed as 41%. On the same count and under the same terms, the value for `N[C@@H](Cc1c[nH]c2ccccc12)C(=O)O` [L-tryptophan] was 38%. On to `N[C@@H](Cc1ccc(O)cc1)C(=O)O` [L-tyrosine], for which, on HbO2, the “metHb conversion (%)” value was determined as 38%. In the case of `NC(=O)C1=CN([C@@H]2O[C@H](COP(=O)(O)OP(=O)(O)OC[C@H]3O[C@@H](n4cnc5c(N)ncnc54)[C@H](OP(=O)(O)O)[C@@H]3O)[C@@H](O)[C@H]2O)C=CC1` [NADPH, nicotinamide adenine dinucleotide phosphate (NADPH)], on HbO2, the “metHb conversion (%)” value was 37%. For the same compound, the “effect to suppress metHb conversion compared with NADH” value on HbO2 (coexisting with HbO2 at 37° C. for 26 hours) was “inferior to that of NADH”.

`CC1=C(/C=C/C(C)=C/C=C/C(C)=C/C=C/C=C(C)/C=C/C=C(C)/C=C/C2=C(C)C(=O)[C@@H](O)CC2(C)C)C(C)(C)C[C@H](O)C1=O` [astaxanthin]: the “metHb conversion (%)” value on HbO2 was 39%. With `OCC(O)CO` [glycerol], the “metHb conversion (%)” value at HbO2 is 38%. Turning to `NC(=O)c1cccnc1` [nicotinamide], the “metHb conversion (%)” value on HbO2 is 34%. With `O=c1c(O)c(-c2ccc(O)c(O)c2)oc2cc(O)cc(O)c12` [quercetin], the “metHb conversion (%)” value on HbO2 turned out to be 42%.

In the case of `O=C1O[C@H]([C@@H](O)CO)C([O-])=C1O.[Na+]` [sodium L-Ascorbate], the “metHb conversion (%)” value at HbO2 worked out at 37%. With `O=C([O-])[C@H](O)[C@@H](O)[C@H](O)[C@H](O)CO.[Na+]` [sodium gluconate], the “metHb conversion (%)” value at HbO2 is 49%.
